# Laboratory results reported in patent US12502382B2, “EPAC1 inhibitors for the treatment of idiopathic pulmonary fibrosis” (INSERM (Institut National de la Santé et de la Recherche …, priority 2019, dated 2025).
# Assays:
# [1] = system: fibrosis markers (COL1, COL3, CTGF, TGFβ) in NHLF cells; test: qPCR of TGF-β1-induced fibrosis marker mRNA in NHLF; type: cell-based, human; settings: TGF-β1 2 ng/mL 48 hrs, inhibitor 20 μM 48 hrs
# Description: (§1) Cell Culture. Normal human lung fibroblast (NHLF) and lung fibroblast from IPF patients were purchased from Lonza, Inc. (Allendale, NJ) and cultured as recommended in FGM-2 medium supplemented with 5% fetal bovine serum (FBS) in 5% CO2 at 37° C. and passaged at the confluence. All the cell lines were tested by the manufacturers and negative for HIV-1, HBV, HCV, mycoplasma, bacteria, yeast, and fungi.
# (§2) Pharmacological treatment. Cells were seeded at 250,000 cells/well in 6-well plates and maintained in a 37° C. incubator with 5% CO2 for 24 hrs prior to use. Cells were treated with TGF-β1 (2 ng/mL; 48 hrs) alone or in combination with either Epac1 inhibitor CE3F4 (20 μM; 48 hrs) or AM-001 (20 μM; 48 hrs).
# (§3) Total RNA was isolated using TRIzol™ (Invitrogen) and purified using RNeasy mini columns (Qiagen), according to the manufacturer's instructions. The cDNA synthesis kit (Applied Biosystems, Foster City, CA) was used to synthesized cDNA, as described by the manufacturer. Quantitative RT-PCR was performed using the PerfeCTa SYBR™ Green FastMix kit (Quantabio, Beverly, MA) and specific primers against the indicated genes, according to the manufacturer's instructions. Fold changes in gene expression were determined using the relative comparison method with normalization to GAPDH as an internal loading control.
# [2] = system: mouse model of bleomycin-induced pulmonary fibrosis; test: Hemodynamics and RV hypertrophy in bleomycin-induced pulmonary fibrosis mouse model; type: in vivo; settings: 10 mg/kg i.p. every alternate day for 2 weeks
# Description: Intratracheal bleomycin animal model. […] Animals were anesthetized by IP injection of xylazine/ketamine and were secured to a tray in the supine position. After intubation, the board was tilted at 45 degrees, and the IA-1C Microsprayer tip (PennCentury, Wyndmoor, PA) was inserted through the lumen of the angiocath. Animals were subjected to a single intratracheal injection of BLM (50 μL; 4 U/Kg) for 28 days.
# Heart hemodynamic studies. The mice were anesthetized with (2-4%) isoflurane, intubated via tracheotomy, and mechanically ventilated with 1-2% isoflurane and oxygen (tidal volume, 6 mL/kg; respiratory rate, 100 breaths per minute). The thoracic cavity was opened, and the organs were accessed through a sternotomy. Once the pericardium was opened, and the heart was fully accessible, an ultrasonic flow probe (flow probe 2.5S176; Transonic Systems Inc., Ithaca, NY) was inserted into the RV to collect the right ventricular systolic pressure (RVSP). Hemodynamic data were recorded using a Scisense PV Control Unit (Scisense, Ontario, Canada).
# Right Ventricular Weight Measurement. After the hemodynamic data were collected, the mice were harvested to collect the heart and lungs. […] The Fulton Index was calculated by the weight ratio of the RV weight to the LV plus septum weight (RV weight/LV+Septum weight) to specifically illustrate the RV hypertrophy. […]
# IPF fibroblasts [3] = test: BrdU proliferation assay in IPF fibroblasts; type: cell-based, human; settings: basal condition, preliminary data
# Description: as §1
# (§4) The proliferation of NHLFs was measured by 5-bromo-2′-deoxyuridine (BrdU) incorporation using the Cell Proliferation ELISA, BrdU (colorimetric) assay (Roche, Indianapolis, IN), according to the manufacturer's instructions.
# IPF fibroblasts [4] = test: Immunoblot of phospho-SMAD2/3, phospho-STAT3, phospho-AKT in IPF fibroblasts; type: cell-based, human; settings: IPF fibroblast
# Description: as §1
# SDS-PAGE and Immunoblot Analysis. Protein lysates were prepared using RIPA lysis buffer (Boston BioProducts) containing a Protease/Phosphatase Inhibitor Cocktail (Pierce). After centrifugation for 20 min at 15000×g, the protein concentrations were determined using a bicinchoninic acid (BCA) assay (Sigma-Aldrich). The proteins were then separated by SDS-polyacrylamide gel electrophoresis and transferred to polyvinylidene difluoride membranes. The membranes were blocked with 5% Skim milk and hybridized overnight at 4° C. with the following primary antibodies: Epac1 (Cell signaling), phospho-SMAD2/3 (Cell signaling), phospho-STAT3 (Cell signaling), phospho-AKT (Cell signaling), Total AKT (Cell signaling), and GAPDH (Thermofisher). The membranes were then incubated with the appropriate secondary HRP-conjugated antibody (Cell signaling) for 1 hour, and the blots were developed using the ECL System (Thermofisher).
# Epac1 = molecular target: T1, Epac1 (Homo sapiens, UniProt O95398); settings: Laudette et al. 2019; cited from earlier work
# T1 sequence (O95398 1-923): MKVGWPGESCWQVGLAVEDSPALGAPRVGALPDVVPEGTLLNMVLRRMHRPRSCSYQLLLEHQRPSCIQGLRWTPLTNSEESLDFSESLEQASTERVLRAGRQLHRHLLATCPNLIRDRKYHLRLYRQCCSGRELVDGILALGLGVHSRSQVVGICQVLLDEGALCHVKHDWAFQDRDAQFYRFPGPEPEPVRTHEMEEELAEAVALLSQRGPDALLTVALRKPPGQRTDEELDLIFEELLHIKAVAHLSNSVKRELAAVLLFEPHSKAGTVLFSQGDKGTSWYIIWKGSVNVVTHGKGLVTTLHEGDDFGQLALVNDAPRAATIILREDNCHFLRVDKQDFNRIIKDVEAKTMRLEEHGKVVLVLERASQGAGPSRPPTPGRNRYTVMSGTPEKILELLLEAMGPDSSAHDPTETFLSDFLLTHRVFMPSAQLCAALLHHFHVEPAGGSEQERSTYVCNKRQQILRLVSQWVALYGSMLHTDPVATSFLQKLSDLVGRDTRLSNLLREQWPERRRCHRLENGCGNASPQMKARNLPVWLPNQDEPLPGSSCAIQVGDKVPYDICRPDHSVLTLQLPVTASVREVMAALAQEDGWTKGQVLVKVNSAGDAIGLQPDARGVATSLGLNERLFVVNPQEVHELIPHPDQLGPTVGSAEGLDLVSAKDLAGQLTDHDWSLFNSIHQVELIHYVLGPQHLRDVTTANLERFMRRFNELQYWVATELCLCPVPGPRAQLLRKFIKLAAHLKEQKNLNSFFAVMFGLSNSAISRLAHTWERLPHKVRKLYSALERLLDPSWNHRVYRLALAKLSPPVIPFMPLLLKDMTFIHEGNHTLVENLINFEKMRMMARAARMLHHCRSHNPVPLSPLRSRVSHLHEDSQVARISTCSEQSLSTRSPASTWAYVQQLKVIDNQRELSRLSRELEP
# [5] = system: Normal human lung fibroblast (NHLF); test: BrdU proliferation assay in normal human lung fibroblasts; type: cell-based; settings: TGFβ treatment and serum stimulation (0.1% or 5% FBS), 48 hours, inhibitor 20 μM
# Description: as §1, §2, §4
# [6] = system: mouse model of bleomycin-induced pulmonary fibrosis; test: qPCR of marker mRNA in lung and RV tissues of bleomycin-challenged mice; type: in vivo
# Description: Intratracheal bleomycin animal model. All of the animal experiments and handling were performed in accordance with NIH Guide for the Care and Use of Laboratory Animals. Animals were anesthetized by IP injection of xylazine/ketamine and were secured to a tray in the supine position. After intubation, the board was tilted at 45 degrees, and the IA-1C Microsprayer tip (PennCentury, Wyndmoor, PA) was inserted through the lumen of the angiocath. Animals were subjected to a single intratracheal injection of BLM (50 μL; 4 U/Kg) for 28 days. The pharmacological inhibitor of Epac1, AM-001, was injected intraperitoneally every alternate day (10 mg/kg) for 2 weeks.
# as §3
# Using a therapeutic strategy, mice were randomly allocated to a sham control-treated group that received intratracheal saline and PF group that received a single intratracheal aerosolization of BLM (4 U/kg). After 2 weeks, the BLM-challenged group was randomly assigned to receive either a vehicle or the Epac1 inhibitor AM-001 for two weeks (FIG. 4A). Vehicle or AM-001 was injected intraperitoneally every alternate day (10 mg/kg) for 2 weeks. […] To further investigate the potential therapeutic effect of Epac1 inhibition in PF, the interstitial fibrosis level and the vascular remodeling were next evaluated by histological analysis after 2 weeks of treatment. […] The inventors also measured by RT-qPCR the expression of several markers of fibrosis in the lung samples.
# IPF fibroblasts [7] = test: qPCR of IL-6, α-SMA and FOXO3 mRNA in IPF fibroblasts; type: cell-based, human; settings: 20 μM for 48 h
# Description: as §1, §3
# [8] = system: myocardial I/R injury and chronic β-AR activation; settings: Laudette et al. 2019; cited from earlier work
# Epac2 = Epac2 (Homo sapiens, UniProt Q8WZA2); settings: Laudette et al. 2019; cited from earlier work
# Sequence of Epac2 (Q8WZA2 whole entry, species assumed): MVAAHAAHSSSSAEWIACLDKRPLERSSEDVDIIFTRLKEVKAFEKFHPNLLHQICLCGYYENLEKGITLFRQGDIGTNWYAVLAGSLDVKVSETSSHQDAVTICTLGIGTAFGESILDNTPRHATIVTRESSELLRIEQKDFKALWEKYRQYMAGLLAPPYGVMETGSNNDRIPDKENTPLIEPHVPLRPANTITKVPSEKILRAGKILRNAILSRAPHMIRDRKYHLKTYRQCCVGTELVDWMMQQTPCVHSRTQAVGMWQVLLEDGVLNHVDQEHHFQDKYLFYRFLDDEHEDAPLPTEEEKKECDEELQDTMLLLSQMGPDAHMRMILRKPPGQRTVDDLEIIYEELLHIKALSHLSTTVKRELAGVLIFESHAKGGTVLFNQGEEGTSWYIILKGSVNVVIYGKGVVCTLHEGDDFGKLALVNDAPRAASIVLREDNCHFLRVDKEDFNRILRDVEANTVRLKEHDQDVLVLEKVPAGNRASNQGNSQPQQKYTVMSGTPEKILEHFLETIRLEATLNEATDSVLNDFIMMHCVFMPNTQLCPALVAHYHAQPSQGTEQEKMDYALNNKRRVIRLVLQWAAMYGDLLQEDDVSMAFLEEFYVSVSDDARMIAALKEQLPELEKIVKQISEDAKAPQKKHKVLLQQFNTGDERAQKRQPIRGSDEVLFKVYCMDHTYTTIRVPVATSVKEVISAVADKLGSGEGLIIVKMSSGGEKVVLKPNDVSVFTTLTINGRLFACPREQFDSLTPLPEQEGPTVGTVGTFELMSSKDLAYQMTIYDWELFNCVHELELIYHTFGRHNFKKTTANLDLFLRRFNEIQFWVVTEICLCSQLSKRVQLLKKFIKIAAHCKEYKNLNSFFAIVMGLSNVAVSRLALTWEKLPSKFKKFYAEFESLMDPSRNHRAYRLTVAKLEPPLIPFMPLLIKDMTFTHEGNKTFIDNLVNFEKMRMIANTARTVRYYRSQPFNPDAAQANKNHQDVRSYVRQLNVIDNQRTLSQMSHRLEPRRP
# protein kinase A (PKA) = settings: Laudette et al. 2019; cited from earlier work
# [9] = system: mouse model of bleomycin-induced pulmonary fibrosis; test: Histology (Masson's trichrome, H&E, WGA) in bleomycin-induced pulmonary fibrosis mouse model; type: in vivo
# Description: Intratracheal bleomycin animal model. […] Animals were anesthetized by IP injection of xylazine/ketamine and were secured to a tray in the supine position. After intubation, the board was tilted at 45 degrees, and the IA-1C Microsprayer tip (PennCentury, Wyndmoor, PA) was inserted through the lumen of the angiocath. Animals were subjected to a single intratracheal injection of BLM (50 μL; 4 U/Kg) for 28 days. The pharmacological inhibitor of Epac1, AM-001, was injected intraperitoneally every alternate day (10 mg/kg) for 2 weeks.
# Hematoxylin & Eosin and Masson's trichrome staining. Lung tissue was harvested, inflated with PBS/OCT (50:50), and fixed (frozen in −80° C.) in OCT. Sections were cut to 8 μm and adhered to colorfrost glass slides (ThermoFisher). Lung tissue sections were stained with hematoxylin and eosin (H&E) and Masson's trichrome (Sigma-Aldrich) and visualized using light microscopy. The medial thickness and collagen deposition were then quantified using ImageJ software.
# RV sections were fixed in 1% paraformaldehyde (PFA) and stained using fluorescence-tagged wheat germ agglutinin (WGA) (Invitrogen) overnight at 4° C. and imaged with on Zeiss Observer Z.1 microscope (Carl Zeiss) at ×160 magnification. The outlines of cardiac myocytes were traced, and the cardiomyocyte area was calculated using ImageJ software.
# [10] = prevents its use for in vivo applications; cited from earlier work
# [11] = BLM+AM-001 vs BLM+vehicle, WT mice
# [12] = BLM-challenged mice, 10 mg/kg i.p. every alternate day for 2 weeks
smiles,measurement,setting,value
"Nc1c(C(=O)Nc2ccc(F)cc2)sc2nc(-c3cccs3)cc(-c3ccccc3)c12 [AM-001, 3-amino-N-(4-fluorophenyl)-4-phenyl-6-(thiophen-2-yl)thieno[2,3-b]pyridine-2-carboxamide]","mRNA expression of fibrosis markers (COL1, COL3, CTGF, TGFβ) induced by TGFβ",[1],impaired the upregulation
same,right ventricular systolic pressure (RVSP),"[2]; BLM 4 U/kg intratracheal, vs control group",reduction
same,RV hypertrophy (Fulton Index),[2]; BLM-challenged mice,significantly decreased
same,IPF fibroblasts proliferation (BrdU),IPF fibroblasts [3],decrease
same,phosphorylation of AKT,IPF fibroblasts [4],decreased
same,phosphorylation of SMAD2/3,IPF fibroblasts [4],decreased
same,phosphorylation of STAT3,IPF fibroblasts [4],decreased
same,inhibitory activity toward Epac1,Epac1,selective inhibitory activity
same,proliferation of NHLFs (BrdU),[5],inhibited
same,FGFR1 mRNA level,[6]; [11],significantly decreasing
same,TNC mRNA level,[6]; [11],trend decrease
same,"upregulation of fibrosis and hypertrophic gene markers (ANP, BNP, β-MHC) in RV","[6]; BLM-challenged mice, RV tissues",compromised
same,COLI mRNA level in lung samples,[6]; [12],markedly reduced
same,COLIII mRNA level in lung samples,[6]; [12],markedly reduced
same,CTGF mRNA level in lung samples,[6]; [12],markedly reduced
same,TGFβ mRNA level in lung samples,[6]; [12],markedly reduced
same,FOXO3 mRNA expression,IPF fibroblasts [7],restored
same,IL-6 mRNA expression,IPF fibroblasts [7],attenuates
same,α-SMA mRNA expression,IPF fibroblasts [7],attenuates
same,cardioprotection against myocardial I/R injury and detrimental effects of chronic β-AR activation,[8],cardioprotective properties
same,antagonist effect on Epac2,Epac2,no antagonist effect
same,antagonist effect on protein kinase A (PKA) activity,protein kinase A (PKA),no antagonist effect
same,pulmonary vascular remodeling (medial thickness of distal pulmonary arteries),"[9]; BLM mice, vs vehicle-treated BLM mice",markedly diminished
same,cardiomyocyte size in RV (WGA staining),[9]; [12],reduction
same,interstitial and perivascular fibrosis (Masson's trichrome),"[9]; BLM-challenged mice, 10 mg/kg i.p. every alternate day for 2 weeks, vs vehicle",significantly decreased
CC1CCc2c(cc(Br)c(F)c2Br)N1C=O (stereo not shown) [CE3F4],"mRNA expression of fibrosis markers (COL1, COL3, CTGF, TGFβ) induced by TGFβ",[1],impaired the induction
same,proliferation of NHLFs (BrdU),[5],significantly decreased
same,biodisponibility,[10],low
